This note sets out measurements from US20200405696A1, “INHIBITORS OF INDOLEAMINE 2,3-DIOXYGENASE AND/OR TRYPTOPHAN 2,3-DIOXYGENASE” (IDORSIA PHARMACEUTICALS LTD, priority 2018, published 2020).

The target in assay [1] is T1, Recombinant human TDO comprising amino acids 19-407 (Homo sapiens, UniProt P48775).
T1 construct: Recombinant human TDO comprising amino acids 19-407 with a N-terminal hexahistidine tag; hexahistidine (His6) (N); made in house; host or cells: E. coli
Briefly: TDO2 enzymatic assay (NFK quantified by LCMS). Format: biochemical. As to conditions: 15 nM enzyme, 200 μM L-tryptophan, pH7, 30 minutes pre-incubation at RT; mean values when measured multiple times; read-out: hTDO activity (IC50 in nM). Put shortly:
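NFK formed over 30 min at RT from 200 μM L-tryptophan was measured by LCMS, normalized to d5-tryptophan, after compound (0.5 nM–10 μM, duplicates, 0.6% DMSO) was preincubated 30 min with 15 nM recombinant His-tagged TDO 19-407 in phosphate buffer pH 7. IC50 from four-parameter logistic fit; repeats averaged.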

Assay [2] has as its target T2, Recombinant full-length human IDO1 (Homo sapiens, UniProt P14902).
T2 construct: Recombinant full-length human IDO1 with a N-terminal hexahistidine tag; hexahistidine (His6) (N); made in house; host or cells: E. coli
Briefly: IDO1 enzymatic assay (NFK quantified by LCMS). As to conditions: 2 nM enzyme, 5 μM L-tryptophan, pH6.5, 30 minutes pre-incubation at RT; mean values when measured multiple times; read-out: hIDO activity (IC50 in nM). It counts as biochemical. The gist of the method:
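His-tagged human IDO1 (2 nM) in pH 6.5 phosphate buffer with ascorbate, methylene blue and catalase was preincubated with compound (10 μM–0.5 nM, 0.6% DMSO) for 30 min at RT. The reaction then ran with 5 μM L-Trp for 30 min. NFK was measured by LCMS against a d5-Trp standard, and IC50 was obtained by four-parameter fit.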

T2 sequence (P14902 whole entry): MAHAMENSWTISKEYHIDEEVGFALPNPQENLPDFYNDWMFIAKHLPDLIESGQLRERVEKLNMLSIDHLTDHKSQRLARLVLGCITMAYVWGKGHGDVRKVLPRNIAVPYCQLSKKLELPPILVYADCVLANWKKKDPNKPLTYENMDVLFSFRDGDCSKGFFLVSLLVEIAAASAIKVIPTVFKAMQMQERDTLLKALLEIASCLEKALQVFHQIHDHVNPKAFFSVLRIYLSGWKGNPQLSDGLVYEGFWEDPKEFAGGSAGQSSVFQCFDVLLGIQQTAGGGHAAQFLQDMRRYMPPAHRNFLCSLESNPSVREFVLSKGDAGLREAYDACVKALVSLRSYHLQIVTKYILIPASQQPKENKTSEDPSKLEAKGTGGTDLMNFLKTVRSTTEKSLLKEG
T1 sequence (P48775 19-406 limits assumed): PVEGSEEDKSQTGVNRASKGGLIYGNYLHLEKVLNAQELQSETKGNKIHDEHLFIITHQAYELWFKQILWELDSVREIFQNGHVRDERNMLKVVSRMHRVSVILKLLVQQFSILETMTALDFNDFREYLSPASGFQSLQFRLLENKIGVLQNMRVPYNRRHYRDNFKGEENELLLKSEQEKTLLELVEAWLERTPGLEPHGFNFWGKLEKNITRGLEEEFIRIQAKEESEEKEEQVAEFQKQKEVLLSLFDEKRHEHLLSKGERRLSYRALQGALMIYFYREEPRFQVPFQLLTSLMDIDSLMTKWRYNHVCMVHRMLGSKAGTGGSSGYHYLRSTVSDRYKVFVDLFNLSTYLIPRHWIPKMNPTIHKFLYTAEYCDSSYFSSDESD

In general, IC50 refers to the concentration needed to halve the response being measured. Regarding `COc1cc(F)c(-n2cc(C(O)c3c(C4CC4)sc4cncn34)nn2)cc1Cl` (racemic) [Example 300, rac-[1-(5-Chloro-2-fluoro-4-methoxy-phenyl)-1H-[1,2,3]triazol-4-yl]-(2-cyclopropyl-imidazo[5,1-b]thiazol-3-yl)-methanol], the IC50 in assay [1] is above 10200 nM; in assay [2], 6.66 nM.

With `OC(c1cn(-c2cn[nH]c2)nn1)c1c(C2CC2)sc2cncn12` (racemic) [Example 41, rac-(2-Cyclopropyl-imidazo[5,1-b]thiazol-3-yl)-[1-(1H-pyrazol-4-yl)-1H-[1,2,3]triazol-4-yl]-methanol], the IC50 in assay [1] was above 10200 nM; in assay [2], 305 nM.

For `CCc1sc2cncn2c1C(O)c1cn(-c2ccc(C(=O)NC)cc2)nn1` (racemic) [Example 111, rac-4-{4-[(2-Ethyl-imidazo[5,1-b]thiazol-3-yl)-hydroxy-methyl]-[1,2,3]triazol-1-yl}-N-methyl-benzamide], the IC50 in assay [1] was above 10200 nM; in assay [2], 28.8 nM.

For the molecule `CNC(=O)c1ccc(-n2cc(C(O)c3c(C4CC4)sc4cncn34)nn2)cc1` (racemic) [Example 182, rac-4-{4-[(2-Cyclopropyl-imidazo[5,1-b]thiazol-3-yl)-hydroxy-methyl]-[1,2,3]triazol-1-yl}-N-methyl-benzamide], the IC50 in assay [1] is above 10200 nM; in assay [2], 26 nM.

For `OC(c1cnn(-c2ccc3c(c2)OCCO3)c1)c1c(C2CC2)sc2cncn12` (racemic) [Example 222, rac-(2-Cyclopropyl-imidazo[5,1-b]thiazol-3-yl)-[1-(2,3-dihydro-benzo[1,4]dioxin-6-yl)-1H-pyrazol-4-yl]-methanol], the IC50 in assay [1] is 7880 nM; in assay [2], 97.2 nM.

Take `OC(c1cn(-c2cnc3c(c2)CCCO3)nn1)c1c(C2CC2)sc2cncn12` (racemic) [Example 72, rac-(2-Cyclopropyl-imidazo[5,1-b]thiazol-3-yl)-[1-(3,4-dihydro-2H-pyrano[2,3-b]pyridin-6-yl)-1H-[1,2,3]triazol-4-yl]-methanol]: the IC50 in assay [1] is above 10200 nM; in assay [2] it was 35.5 nM.

As for `O[C@@H](c1cn(-c2ccc(OCC3(F)COC3)c(Cl)c2)nn1)c1c(C2CC2)sc2cncn12` [Example 282, (R)-{1-[3-Chloro-4-(3-fluoro-oxetan-3-ylmethoxy)-phenyl]-1H-[1,2,3]triazol-4-yl}-(2-cyclopropyl-imidazo[5,1-b]thiazol-3-yl)-methanol], the IC50 is above 10200 nM in assay [1] and 5.58 nM in assay [2].

On to `Cc1sc2cncn2c1C(O)c1cnc(-c2ccccc2)s1` (racemic) [Example 155, rac-(2-Methyl-imidazo[5,1-b]thiazol-3-yl)-(2-phenyl-thiazol-5-yl)-methanol], for which the IC50 is above 10200 nM in assay [1] and 734 nM in assay [2].

`CCc1sc2cncn2c1C(O)c1cn(-c2ccc(C(=O)NCCCO)cc2)nn1` (racemic) [Example 115, rac-4-{4-[(2-Ethyl-imidazo[5,1-b]thiazol-3-yl)-hydroxy-methyl]-[1,2,3]triazol-1-yl}-N-(3-hydroxy-propyl)-benzamide]: the IC50 was above 10200 nM in assay [1] and 12.7 nM in assay [2].

In the case of `COc1ncc(-n2cc(C(O)c3c(C4CC4)sc4cncn34)nn2)cc1C` (racemic) [Example 71, rac-(2-Cyclopropyl-imidazo[5,1-b]thiazol-3-yl)-[1-(6-methoxy-5-methyl-pyridin-3-yl)-1H-[1,2,3]triazol-4-yl]-methanol], the IC50 in assay [1] was above 10200 nM; in assay [2] it was 55.9 nM.

Take `Cc1sc2cncn2c1C(O)c1cnn(-c2ccccc2)c1` (racemic) [Example 96, rac-(2-Methyl-imidazo[5,1-b]thiazol-3-yl)-(1-phenyl-1H-pyrazol-4-yl)-methanol]: the IC50 was determined as 2530 nM in assay [1] and 163 nM in assay [2].

Consider `OC(c1cn(-c2ccccc2)nn1)c1c(C2CCCC2)sc2cncn12` (racemic) [Example 13, rac-(2-Cyclopentyl-imidazo[5,1-b]thiazol-3-yl)-(1-phenyl-1H-[1,2,3]triazol-4-yl)-methanol], for which the IC50 in assay [1] was found to be 8410 nM; in assay [2], 54.4 nM.
